From US20060240049A1, “Anti-protozoal compositions comprising diclazuril” (priority 2003, published 2006)

Key:
[1] = in water; cited from earlier work
[2] = Stability of sodium diclazuril in aqueous solution; assay type: physicochemical; details: degrades into its keto-degradant

Row | stability in an aqueous solution [2] | SMILES | aqueous solubility, saturation concentration [1]
1 | – | N#CC(c1ccc(Cl)cc1)c1c(Cl)cc(-n2ncc(=O)[nH]c2=O)cc1Cl (centres unmarked) [diclazuril] | below 1 μg/L
2 | unstable | N#CC(c1ccc(Cl)cc1)c1c(Cl)cc(-n2ncc(=O)[n-]c2=O)cc1Cl.[Na+] (centres unmarked) [sodium diclazuril] | –
